The source of these data is patent publication US20230303503A1, “CELL ACTIVATABLE IRON CHELATORS” (BOARD OF REGENTS, THE UNIVERSITY OF TEXAS SYSTEM, priority 2020, published 2023).

Series [1] deals with A549 human lung cancer cell line. The series can be described thus: MTT cell viability / antiproliferative assay in A549 cells. In kind it is cell-based. Particulars: for IC50: A549, MTT, triplicate. How it is done:
Cell culture. A549 cells (ATCC® CCL-185™) were maintained in growth medium consisting of RPMI 1640 Medium (Sigma-Aldrich, MO, USA) supplemented with 10% fetal bovine serum (Sigma-Aldrich, MO, USA) and 2% Penicillin/Streptomycin (Sigma-Aldrich, MO, USA). Cells were kept in a humidified atmosphere of 5% CO2 and 95% air at 37° C. and were split when they reached 90% confluency.
Cell viability assay. 1500 cells per well were plated on a 96-well plate (12 rows × 8 wells per row) in 100 µL growth medium and kept at 37° C. under 5% CO2. 24 h after seeding, cells were treated with another 100 µL growth medium containing different concentrations of the drug under evaluation. Cells in each row of the 96-well plate were treated with the same concentration of drug and the first two rows were kept as control and treated with growth medium alone. The highest drug concentration evaluated was 250 µM and lower concentrations were produced via serial dilution by a factor of 3. Treated cells were kept at 37° C. under 5% CO2 for 72 h. Then, 50 µL RPMI 1640 Medium without fetal bovine serum and penicillin/streptomycin containing 3 mg/mL 3-(4,5-dimethylthiazol-2-yl)-2,5-diphenyltetrazolium bromide (Sigma-Aldrich, MO, USA) was added to each well and cells were kept at 37° C. under 5% CO2 for another 4 h. Subsequently, the medium was removed, and the precipitated formazan dye taken up in DMSO (50 µL). The absorbance of the solutions was measured at 540 nm with an M5 microplate reader (Molecular Devices, USA) and 0.33 absorbance units were subtracted from all wells (this absorbance value corresponds to wells containing DMSO without dye - control). The absorbance of each row of wells were averaged and were directly proportional to the number of viable cells after drug treatment.
The antiproliferative activity of compounds 1-10 was evaluated in A549 lung cancer cells, a cell line with a well- established sensitivity to iron imbalance (Loza-Rosas et al., 2017; Ohara et al., 2013). For each compound, cellular proliferation profiles were produced via a standard MTT (3-(4,5-dimethylthiazol-2-yl)-2,5-diphenyltetrazolium bromide) assay for exposure times of 72 h and 24 h, respectively. From these proliferation profiles, averaged IC50 values and Hill slope (HS) parameters were determined via linear regression analysis.

Series [2] concerns methicillin-resistant Staphylococcus aureus (MRSA, ATCC 43300). The series can be described thus: Inhibition of drug-resistant bacteria (colonies, cell viability). The series is classed as cell-based. Particulars: agar and defibrillated amniotic blood. Here is the method: Cell viability of (FIG. 4B) MRSA (ATCC 43300) and (FIG. 4C) VRE (ATCC 51299) before and after treatment with ExBT, ExJade, ExPhos, and arbekacin (15 µM).
More importantly, two clinically relevant gram-positive, drug-resistant bacteria, methicillin-resistant Staphylococcus aureus (MRSA, ATCC 43300) and vancomycin-resistant Enterococcus faecalis (VRE, ATCC 51299) with high ALP activity were then used to evaluate further the therapeutic potential of these ExJade derivatives. Again, arbekacin was used as a positive control. […] The observed inhibition of VRE is of particular significance since there are few clinically available treatments for this multidrug-resistant bacterium.
(§1) This observation confirms the Fe(III) chelation dependent inhibitory activity. Due to the Fe(III) chelation dependent nature of the ExJade derivatives and to illustrate their potential “real life” utility, the inhibitory activity of ExBT and ExPhos against MRSA were evaluated in a blood containing medium consisting of agar and defibrillated amniotic blood (Filipowicz et al., 2003).

In series [3] the test system is Klebsiella pneumoniae (ATCC 13883). The series can be described thus: Bacterial growth inhibition. In kind it is cell-based. How it is done:
(§2) Similarly, the bacterial inhibitory effect of the present ExJade derivatives was then evaluated. Initial tests were focused on two Gram-negative, ESKAPE bacteria (Mulani et al., 2019), Pseudomonas aeruginosa (ATCC 27853) and Klebsiella pneumoniae (ATCC 13883). Arbekacin, an FDA-approved aminoglycoside-based antibiotic, was used as positive control.

Series [4] deals with alkaline phosphatase (ALP). Briefly: Alkaline phosphatase response of the pro-chelator (fluorescence). In kind it is biochemical. The following applies: 15 µM, ALP 0-64 U. The source says:
This ratiometric change in fluorescence emission was ascribed to the gradual and stepwise dephosphorylation of ExPhos, which was confirmed by LC-MS analysis. ExPhos solutions exposed to ALP (64 U ALP) were subsequently treated with increasing concentrations of Fe(III) (as the FeCl3 salt). […] Based on these findings, we considered it likely that ExPhos could serve as an ALP-responsive Fe(III) pro-chelator.
Recently, protected versions of known metal chelators (“prochelators”) have been explored in an effort to avoid premature metal chelation (Wang et al., 2016). The bis-phosphate ester ExPhos was thus prepared as a phosphatase-responsive fluorescent pro-chelator that would permit detection of a disease-based biomarker (i.e., alkaline phosphatase, ALP) (Zhang et al., 2020; McCullough and Barrios, 2020; Haarhaus et al., 2017; Gwynne et al., 2019). […] Timedependent changes in fluorescence emission intensity were also seen. The limit of detection (LoD) was calculated to be 0.016 75 U (measurements performed after 5 min of incubation). The ratiometric change in the fluorescence emission was ascribed to the gradual and stepwise (bis-phosphate ester to monophosphate ester to bisphenol) dephosphorylation of ExPhos (as confirmed by LCMS analyses). This sequential conversion leads to a rapid decrease in the blue emission and a slow increase in the green emission. […]

The next series deals with P. aeruginosa biofilms. Briefly: Live/dead biofilm viability assay on glass slides. The series is classed as cell-based, Pseudomonas aeruginosa. The following applies: CFP-SUL 16 µg/mL alone or combined with chelator 64 µg/mL. Here is the method: (§3) FIGS. 11A & 11B show biofilm experiments. (FIG. 11A) Evaluation of CFP-SUL (cefoperazone-sulbactam; 16 µg/mL), CFP-SUL@ExBT (16 µg/mL@64 µg/mL), CFP-SUL@deferasirox (16 µg/mL@64 µg/mL), and CFP-SUL@ExPhos (16 µg/mL@64 µg/mL) for the treatment of P. aeruginosa and MRSA biofilms. Processed 3D images of P. aeruginosa and MRSA biofilms on glass slides using the live/dead biofilm viability assay. Distributions of PI-stained (red, dead bacteria) and Syto9-stained (green, live bacteria) (FIG. 11B) P. aeruginosa and MRSA biovolumes and CFU counts (purple dots) for the above groups. Biovolume data are mean values of three independent replicates.
(§4) Biofilm experiments were carried out on glass slides with both Pseudomonas aeruginosa and MRSA. The therapeutic performance of the broad-spectrum antibiotic cefoperazonesulbactam (CFP-SUL) (Sheu et al., 2020) was evaluated on its own and in combination with deferasirox, ExBT, and ExPhos using the live/dead biofilm caption viability assay (propidium iodide (PI): dead, red; Syto9: live, green).

In another series the test system is MRSA biofilms. The series can be described thus: Live/dead biofilm viability assay on glass slides. The series is classed as cell-based, Staphylococcus aureus. Particulars: CFP-SUL 16 µg/mL alone or combined with chelator 64 µg/mL. How it is done: as §3, §4
Series [5] has as its system Pseudomonas aeruginosa (ATCC 27853). Briefly: Bacterial growth inhibition. In kind it is cell-based. Here is the method:
as §2, §1

Series [6] can be described thus: Behaviour in aqueous media (solubility, aggregation, DLS). In kind it is physicochemical. The following applies: water; neutral pH for ExJade. How it is done:
Several new ExJade derivatives, designed to control solubility and modulate the intrinsic electronic features, namely ExPh, ExPh-OMe, ExH, ExBT, ExBT-OMe and ExPhos, were prepared. […] In marked contrast to what is seen in aqueous environments, solutions of ExPh and ExBT in most common organic solvents display no appreciable emission.
No significant fluorescence quenching was seen upon changing the solvents in which ExPh-OMe and ExBT-OMe were analyzed - DMSO, PhMe, THF, DCM, acetone, MeCN, MeOH and PBS. […] This putative ICT phenomenon has been observed in structurally similar N-phenylpyrrole analogues (Yoshihara et al., 2005; Yoshihara et al., 2003). Further support for the proposed aqueous induced aggregation mechanism invoked in the case of ExPh and […] came from studies of the parent system, ExJade.

The mark [7] stands for this setting: 24 h incubation, read-out: IC50 (24 h).
[8] abbreviates: 72 h incubation, read-out: IC50 (72 h).

The structures appear in SMILES notation. Several values for one entry are separate records, joined by “and”; a condition that tells them apart may be missing. Identical values can stand only once. Like-named read-outs stand apart in the source and are kept apart here. Where only a bound is given, the exact number is not on record here.

A word on the IC50: it is the midpoint of a concentration-inhibition curve. As for `O=C(c1ccc(-n2nc(-c3ccccc3O)nc2-c2ccccc2O)cc1)N1CCOCC1` [Compound 4], the IC50 in series [1] (setting [7]) was above 50 µM; in series [1] (setting [8]) it was 2.6 µM and 3.6 µM.
In the case of `O=P(O)(O)Oc1ccccc1-c1nc(-c2ccccc2OP(=O)(O)O)n(-c2ccc(-c3nc4ccccc4s3)cc2)n1` [ExPhos], the “inhibitory activity in blood containing medium” value in series [2] is reported as “remaining strong”. Further, the “inhibition of bacterial growth” value in series [3] and in series [5] was “capable of inhibiting the growth” in each case. For the same compound, the “change in fluorescence emission in the presence of ALP” value in series [4] is “dose dependent change”. The antibiofilm effect entry in the series on P. aeruginosa biofilms and in the series with MRSA biofilms was “enhanced” throughout. Also, the “cytotoxicity towards A549 cells” value in series [1] (pro-chelator, in words) is reported as “no significant cytotoxicity”.
`O=C1[O][Pt]2([NH][C@@H]3CCCC[C@H]3[NH]2)[O]C1=O` [Ox-Pt, oxaliplatin, reference compound]: the IC50 in series [1] (setting [7]) is above 50 µM; in series [1] (setting [8]), 0.5 ± 0.1 µM.
As for `Oc1ccccc1-c1nc(-c2ccccc2O)n(-c2ccccc2)n1` [ExPh], the “inhibition of bacterial growth” value in series [3] and in series [5] was “capable of inhibiting the growth” in each case. The “solubility in aqueous media” value in series [6] was “insoluble aggregates”.
As for `Oc1ccccc1-c1nc(-c2ccccc2O)n(-c2ccc(-c3nc4ccccc4s3)cc2)n1` [ExBT], in series [2], the “inhibitory activity in blood containing medium” value is recorded as “remaining strong”. Moreover, the “inhibition of bacterial growth” value in series [3] and in series [5] was “capable of inhibiting the growth” each time. Moreover, the antibiofilm effect entry with P. aeruginosa biofilms and in the series with MRSA biofilms was “enhanced” each time. For the same compound, the “solubility in aqueous media” value in series [6] is given as “insoluble aggregates”.
As for `O=C(O)c1ccc(-n2nc(-c3ccccc3O)nc2-c2ccccc2O)cc1` [Compound 1, deferasirox, reference compound], the “cytotoxicity when cells were supplemented with FeCl3” value in series [1] (A549, 50 µM FeCl3, 72 h of exposure) was “no longer produced any observable cytotoxicity”. The IC50 in series [1] (Homo sapiens, 24 h incubation, read-out: IC50 (24 h)) was above 50 µM; in series [1] (Homo sapiens, 72 h incubation, read-out: IC50 (72 h)) it was 8.5 µM. For the same compound, the “solubility in aqueous media” value in series [6] is on record as “good solubility”.
As to `COC(=O)c1ccc(-n2nc(-c3ccccc3O)nc2-c2ccccc2O)cc1` [Compound 2], the IC50 in series [1] (setting [7]) is 21 ± 3 µM; in series [1] (setting [8]), 1.6 µM and 2.5 µM.
